Measurements reported in patent publication US20250221410A1, “SUBSTITUTED 2-C-AZINES AND SALTS THEREOF, AND USE THEREOF AS HERBICIDAL ACTIVE SUBSTANCES” (BAYER AKTIENGESELLSCHAFT, priority 2022, published 2025).

How the values were obtained:
Type in all cases: in vivo
[1] = test system: SETVI: Setaria viridis; assay: Post-emergence herbicidal efficacy at 1280 g/ha, SETVI; conditions: visual rating about 3 weeks after treatment vs untreated controls
Procedure, shortened: (§1)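 Read-out is visual percent activity relative to untreated controls (100% = plants died, 0% = no effect), scored about 3 weeks after treatment. Application was post-emergence at the one-leaf stage in the greenhouse, as WP or EC in water with 0.5% additive at 600 L/ha.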

[2] = test system: AMARE: Amaranthus retroflexus; assay: Pre-emergence herbicide efficacy at 1280 g/ha, AMARE; conditions: visual scoring after about 3 weeks vs untreated controls
Procedure, shortened: (§2)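 Pre-emergence pot test in sandy loam: WP or EC formulations sprayed onto covering soil after sowing, as aqueous suspension/emulsion with 0.5% additive at 600 L/ha water. Plants grown in greenhouse; after about 3 weeks, efficacy scored visually as % versus untreated controls (100% = dead, 0% = like control).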

[3] = test system: SETVI: Setaria viridis; assay: Pre-emergence herbicide efficacy at 1280 g/ha, SETVI; conditions: visual scoring vs untreated controls
Procedure, shortened: as §2

[4] = test system: ABUTH: Abutilon theophrasti; assay: Pre-emergence herbicide efficacy at 1280 g/ha, ABUTH; conditions: visual scoring after about 3 weeks vs untreated controls
Procedure, shortened: as §2

[5] = test system: STEME: Stellaria media; assay: Pre-emergence herbicide efficacy at 1280 g/ha, STEME; conditions: visual scoring vs untreated controls
Procedure, shortened: as §2

[6] = test system: AMARE: Amaranthus retroflexus; assay: Post-emergence herbicidal efficacy at 1280 g/ha, AMARE; conditions: rated visually after about 3 weeks vs untreated controls, 100% = plants have died, 0% = like control plants
Procedure, shortened: as §1

[7] = test system: DIGSA: Digitaria sanguinalis; assay: Post-emergence herbicidal efficacy at 1280 g/ha, DIGSA; conditions: rated visually after about 3 weeks vs untreated controls, 100% = plants have died, 0% = like control plants
Procedure, shortened: as §1

[8] = test system: KCHSC: Kochia scoparia; assay: Pre-emergence herbicide efficacy at 1280 g/ha, KCHSC; conditions: visual scoring after about 3 weeks vs untreated controls
Procedure, shortened: as §2

[9] = test system: LOLRI: Lolium rigidum; assay: Pre-emergence herbicide efficacy at 1280 g/ha, LOLRI; conditions: visual scoring after about 3 weeks vs untreated controls
Excerpt: (§3) Seeds of mono- and dicotyledonous weed plants were placed in plastic pots in sandy loam soil (doubly sown with one species each of mono- or dicotyledonous weed plants per pot) and covered with soil. The compounds of the invention, formulated in the form of wettable powders (WP) or as emulsion concentrates (EC), were then applied to the surface of the covering soil as aqueous suspension or emulsion with addition of 0.5% additive at a water application rate of 600 litres per hectare (converted). After the treatment, the pots were placed in a greenhouse and kept under good growth conditions for the test plants. After about 3 weeks, the efficacy of the preparations was scored visually in comparison with untreated controls as percentages. For example, 100% activity=the plants have died, 0% activity=like control plants. Tables C1 to C12 below show the effects of selected compounds of the general formula (I) according to Table 1 on various harmful plants and at an application rate corresponding to 1280 g/ha, which were obtained by the trial procedure specified above.

[10] = test system: POAAN: Poa annua; assay: Post-emergence herbicidal efficacy at 1280 g/ha, POAAN; conditions: visual rating about 3 weeks after treatment vs untreated controls
Procedure, shortened: as §1

[11] = test system: ECHCG: Echinochloa crus-galli; assay: Pre-emergence herbicide efficacy at 1280 g/ha, ECHCG; conditions: visual scoring after about 3 weeks vs untreated controls
Procedure, shortened: as §2

[12] = test system: STEME: Stellaria media; assay: Post-emergence herbicidal efficacy at 1280 g/ha, STEME; conditions: visual rating about 3 weeks after treatment vs untreated controls
Procedure, shortened: as §1

[13] = test system: ABUTH: Abutilon theophrasti; assay: Post-emergence herbicidal efficacy at 1280 g/ha, ABUTH; conditions: rated visually after about 3 weeks vs untreated controls, 100% = plants have died, 0% = like control plants
Procedure, shortened: as §1

[14] = test system: VERPE: Veronica persica; assay: Post-emergence herbicidal efficacy at 1280 g/ha, VERPE; conditions: visual rating about 3 weeks after treatment vs untreated controls
Procedure, shortened: as §1

[15] = test system: KCHSC: Kochia scoparia; assay: Post-emergence herbicidal efficacy at 1280 g/ha, KCHSC; conditions: visual rating about 3 weeks after treatment vs untreated controls
Procedure, shortened: as §1

[16] = test system: ALOMY: Alopecurus myosuroides; assay: Pre-emergence herbicide efficacy at 1280 g/ha, ALOMY; conditions: visual scoring after about 3 weeks vs untreated controls
Excerpt: as §3

[17] = test system: VERPE: Veronica persica; assay: Pre-emergence herbicide efficacy at 1280 g/ha, VERPE; conditions: visual scoring vs untreated controls
Procedure, shortened: as §2

[18] = test system: DIGSA: Digitaria sanguinalis; assay: Pre-emergence herbicide efficacy at 1280 g/ha, DIGSA; conditions: visual scoring after about 3 weeks vs untreated controls
Procedure, shortened: as §2

[19] = test system: ECHCG: Echinochloa crus-galli; assay: Post-emergence herbicidal efficacy at 1280 g/ha, ECHCG; conditions: rated visually after about 3 weeks vs untreated controls, 100% = plants have died, 0% = like control plants
Procedure, shortened: as §1

[20] = test system: POAAN: Poa annua; assay: Pre-emergence herbicide efficacy at 1280 g/ha, POAAN; conditions: visual scoring after about 3 weeks vs untreated controls
Procedure, shortened: as §2

[21] = test system: MATIN: Matricaria inodora; assay: Pre-emergence herbicide efficacy at 1280 g/ha, MATIN; conditions: visual scoring after about 3 weeks vs untreated controls
Excerpt: as §3

[22] = test system: VERPE: Veronica persica; assay: Pre-emergence herbicide efficacy at 80 g/ha, VERPE; conditions: scored visually after about 3 weeks
Excerpt: (§4) Seeds of monocotyledonous and dicotyledonous weed plants and crop plants were placed in plastic or organic planting pots and covered with soil. The compounds of the invention, formulated in the form of wettable powders (WP) or as emulsion concentrates (EC), were then applied to the surface of the covering soil as aqueous suspension or emulsion with addition of 0.5% additive at a water application rate equivalent to 600 l/ha. After the treatment, the pots were placed in a greenhouse and kept under good growth conditions for the test plants. After about 3 weeks, the efficacy of the preparations was scored visually in comparison with untreated controls as percentages. For example, 100% activity=the plants have died, 0% activity=like control plants. Tables D1 to D12 below show the effects of selected compounds of the general formula (I) according to Table 1 on various harmful plants and an application rate corresponding to 80 g/ha, which were obtained by the experimental procedure mentioned above.

[23] = test system: VERPE: Veronica persica; assay: Post-emergence herbicidal efficacy at 80 g/ha, VERPE; conditions: visual rating about 3 weeks after treatment vs untreated controls
Experimental: Seeds of monocotyledonous and dicotyledonous weeds and crop plants were placed in sandy loam in plastic or organic planting pots, covered with soil and cultivated in a greenhouse under controlled growth conditions. 2 to 3 weeks after sowing, the test plants were treated at the one-leaf stage. The compounds of the invention, formulated in the form of wettable powders (WP) or as emulsion concentrates (EC), were then sprayed onto the green parts of the plants as aqueous suspension or emulsion with addition of 0.5% additive at a water application rate of 600 l/ha (converted). After the test plants had been kept in the greenhouse under optimum growth conditions for about 3 weeks, the activity of the preparations was rated visually in comparison to untreated controls. For example, 100% activity=the plants have died, 0% activity=like control plants. Tables B1 to B10 below show the effects of selected compounds of the general formula (I) according to Table 1 on various harmful plants and an application rate corresponding to 80 g/ha, which were obtained by the experimental procedure mentioned above.

[24] = test system: AMARE: Amaranthus retroflexus; assay: Pre-emergence herbicide efficacy at 80 g/ha, AMARE; conditions: scored visually after about 3 weeks
Excerpt: as §4

[25] = test system: AMARE: Amaranthus retroflexus; assay: Post-emergence herbicidal efficacy at 80 g/ha, AMARE; conditions: visual rating about 3 weeks after treatment vs untreated controls
Procedure, shortened: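 Pot-grown weeds in sandy loam were sprayed at one-leaf stage (2–3 weeks post-sowing) with WP or EC formulations plus 0.5% additive at 600 l/ha water. About 3 weeks later in the greenhouse, activity was rated visually against untreated controls, 0% = like control, 100% = dead.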

Row | SMILES | Post-emergence efficacy against SETVI [1] [%] | Pre-emergence efficacy against AMARE [2] [%] | Pre-emergence efficacy against SETVI in % [3] [%] | Pre-emergence efficacy against ABUTH [4] [%] | Pre-emergence efficacy against STEME in % [5] [%] | Post-emergence efficacy at 1280 g/ha against AMARE in % [6] [%] | Post-emergence efficacy at 1280 g/ha against DIGSA in % [7] [%] | Pre-emergence efficacy against KCHSC [8] [%] | Pre-emergence efficacy against LOLRI [9] [%] | Post-emergence efficacy against POAAN [10] [%] | Pre-emergence efficacy against ECHCG [11] [%] | Post-emergence efficacy against STEME [12] [%] | Post-emergence efficacy at 1280 g/ha against ABUTH in % [13] [%] | Post-emergence efficacy against VERPE [14] [%] | Post-emergence efficacy against KCHSC [15] [%] | Pre-emergence efficacy against ALOMY [16] [%] | Pre-emergence efficacy against VERPE in % [17] [%] | Pre-emergence efficacy against DIGSA [18] [%] | Pre-emergence efficacy against POAAN [20] [%] | Pre-emergence efficacy against MATIN [21] [%] | also measured
1 | Clc1cnc(Cc2c(Br)cccc2Oc2ncc(Cl)cn2)nc1 [Example 1-53] | 100 | 100 | 100 | 100 | 100 | 100 | 90 | 100 | 100 | 100 | 100 | 100 | 100 | 100 | 100 | 100 | 100 | 100 | 100 | 100 | Post-emergence efficacy at 1280 g/ha against ECHCG in % [19]: 100%
2 | Fc1cccc(Oc2ncc(Cl)cn2)c1Cc1ncc(Cl)cn1 [Example 1-51] | – | 100 | 100 | 100 | 100 | 100 | – | 100 | – | – | 90 | – | – | 100 | 90 | – | 100 | 100 | 90 | 100 | Pre-emergence efficacy against VERPE in % [22]: 80%; Post-emergence efficacy against VERPE [23]: 100%; Pre-emergence efficacy against AMARE in % [24]: 90%; Post-emergence efficacy against AMARE [25]: 100%
3 | Fc1ccc(Oc2ccccc2Cc2ncc(Cl)cn2)cc1 [Example 1-29] | 90 | 100 | 100 | 100 | 90 | 90 | 90 | – | 100 | 90 | 100 | – | 90 | 100 | 90 | – | 100 | 100 | 100 | 90 | –
4 | Fc1cnc(Oc2cccc(Cl)c2Cc2ncc(Cl)cn2)nc1 [Example 1-57] | 90 | 100 | 100 | 100 | 100 | 90 | 90 | 100 | 100 | 90 | 100 | 90 | 90 | 90 | 90 | 100 | 100 | 100 | 100 | 100 | Post-emergence efficacy at 1280 g/ha against ECHCG in % [19]: 90%
